What was measured:
COX-1 = COX-1 (Homo sapiens, UniProt P23219); assay: Human COX-1 enzyme activity (COX Inhibitor Screening Assay, prostaglandin EIA); format: biochemical; design: purchased Cayman Chemical; conditions: test compound at 100 μM
Procedure: (§1) The human COX-1 and COX-2 enzyme activities and the measurement of the prostaglandin products synthesized were performed using the COX Inhibitor Screening Assay (Cayman Chemical, Ann Arbor, Mich.), which also contained the Prostaglandin Screening EIA Kit, used for prostaglandin quantification). The test compounds were dissolved at 50 times the highest final reaction concentration in DMSO or any other suitable solvent as stock solutions. These stock solutions were then diluted in the same solvent. Eight glass test tubes (13×100 mm) were placed in a 25° C. water bath. To each test tube was added 950 μL of reaction buffer (0.1 M Tris-HCl, pH 8.0, containing 5 mM EDTA, and 2 mM phenol), 10 μL of 100 µM heme solution, and 10 μL (5 units) of either human COX-1 or COX-2 enzyme and the resulting mixture was incubated for 2 minutes. Twenty μL of the solvent was added to one tube (100% initial activity or solvent control) and 20 μL of each dilution of the test compound was added to one tube each. Each tube was vortexed immediately after the addition. The enzyme was incubated with the inhibitor for 20 minutes at 25° C. The enzymatic reaction was then initiated by the addition of 10 μL of freshly prepared 10 mM arachidonic acid (neutralized with KOH), vortexed and then incubated for 2 minutes (or, in some cases as indicated, 30 seconds) at 37° C. The reaction was terminated by the addition of 50 μL of 1 M HCl, vortexed and placed at room temperature. One hundred μL of a saturated stannous chloride solution (50 mg/mL of 0.1 M HCl) was added and the reaction mixture was allowed to stand at room temperature for at least 5 minutes.
(§2) The prostaglandins (PG) produced in the reactions were assayed, after a 2,000-fold dilution, using the Prostaglandin Screening EIA Kit (Cayman Chemical, Ann Arbor, Mich.). The assay contains an antibody with broad specificity for all the prostaglandin families (PGF, PGE, PGD, and thromboxane B-type) synthesized in the COX-1/COX-2 reactions. The synthesized prostaglandin competes with a PG-tagged acetylcholine esterase tracer for binding to the PG antibody. Binding of synthesized PG lowers the colorimetric development of the Ellman's Reagent (computed as %B/B0). The actual amount of synthesized PG was interpolated from a standard curve using known amounts of supplied prostaglandin E2 (PGE2) (PGE2 concentration vs. %B/B0). The data generated were the mean±standard deviation of triplicate wells in the EIA for a single reaction at a given inhibitor concentration. A plot of % of control (i.e., the solvent control without inhibitor) vs. test compound inhibitor concentration for both isoenzymes was used to determine the IC50 's for COX-1 and COX-2 for that test compound, when IC50's were calculated. The % inhibition for COX-1 and COX-2 enzyme activity by the test compounds at the indicated concentrations are given in Table 1.

COX-2 = target: T1, COX-2 (Homo sapiens, UniProt P35354); assay: Human COX-2 enzyme activity (COX Inhibitor Screening Assay, prostaglandin EIA); format: biochemical; design: purchased Cayman Chemical; conditions: test compound at 10 μM
T1 sequence (P35354 18-604): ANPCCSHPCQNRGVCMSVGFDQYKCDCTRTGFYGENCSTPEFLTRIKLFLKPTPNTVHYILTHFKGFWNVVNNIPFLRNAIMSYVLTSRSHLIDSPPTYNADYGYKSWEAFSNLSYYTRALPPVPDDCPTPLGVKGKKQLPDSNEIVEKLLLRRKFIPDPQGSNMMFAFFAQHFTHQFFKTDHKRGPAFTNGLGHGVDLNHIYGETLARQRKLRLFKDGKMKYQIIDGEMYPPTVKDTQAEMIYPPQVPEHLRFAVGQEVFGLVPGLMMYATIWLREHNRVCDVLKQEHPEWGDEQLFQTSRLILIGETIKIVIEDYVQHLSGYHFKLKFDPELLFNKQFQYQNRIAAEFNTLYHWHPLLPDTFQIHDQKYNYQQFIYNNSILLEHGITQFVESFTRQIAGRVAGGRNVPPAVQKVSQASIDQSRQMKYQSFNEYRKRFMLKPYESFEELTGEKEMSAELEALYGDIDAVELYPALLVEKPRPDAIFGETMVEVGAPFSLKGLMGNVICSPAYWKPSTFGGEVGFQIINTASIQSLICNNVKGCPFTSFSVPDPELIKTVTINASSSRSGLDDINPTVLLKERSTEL
Procedure: as §1
as §2, with “concentration.” for “concentration. A plot of % of control (i.e., the solvent control without inhibitor) vs. test compound inhibitor concentration for both isoenzymes was used to determine the IC50 's for COX-1 and COX-2 for that test compound, when IC50's were calculated. The % inhibition for COX-1 and COX-2 enzyme activity by the test compounds at the indicated concentrations are given in Table 1.”

Sequence of COX-1 (P23219 24-599): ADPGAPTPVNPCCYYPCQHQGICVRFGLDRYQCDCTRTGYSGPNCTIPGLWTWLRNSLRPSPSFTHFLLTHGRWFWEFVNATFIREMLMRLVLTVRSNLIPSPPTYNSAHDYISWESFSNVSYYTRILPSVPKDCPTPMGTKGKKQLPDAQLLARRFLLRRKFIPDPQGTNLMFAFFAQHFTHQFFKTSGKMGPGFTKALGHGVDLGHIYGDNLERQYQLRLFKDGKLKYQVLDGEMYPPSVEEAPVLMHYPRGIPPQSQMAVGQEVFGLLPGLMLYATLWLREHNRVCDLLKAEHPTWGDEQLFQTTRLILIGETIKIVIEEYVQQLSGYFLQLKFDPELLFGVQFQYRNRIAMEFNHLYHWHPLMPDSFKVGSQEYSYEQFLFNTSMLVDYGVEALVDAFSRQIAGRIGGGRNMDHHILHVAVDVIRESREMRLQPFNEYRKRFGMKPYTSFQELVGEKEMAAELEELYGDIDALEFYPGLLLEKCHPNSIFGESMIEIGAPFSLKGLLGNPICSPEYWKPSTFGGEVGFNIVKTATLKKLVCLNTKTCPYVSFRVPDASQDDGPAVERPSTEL

## CS(=O)(=O)c1ccc(-c2cc3c(cc2CC2CCCCC2)OCO3)cc1 [Example 1e, 1-(6-(Cyclohexylmethyl)(2-H-benzo(3,4-d)1,3-dioxolen-5-yl))-4-(methylsulfonyl) benzene]
COX-1
  COX-1 Inhibition (% at 100 μM): 0%
COX-2
  COX-2 Inhibition (% at 10 μM): 100%

## CS(=O)(=O)c1ccc(-c2cc3c(cc2C(=O)c2ccccc2)OCO3)cc1 [Example 3d, 6-(4-(Methylsulfonyl)phenyl)(2H-benzo(d)1,3-dioxolan-5-yl) phenyl ketone]
COX-1
  COX-1 Inhibition (% at 100 μM): 0%
COX-2
  COX-2 Inhibition (% at 10 μM): 90%

## CS(=O)(=O)c1ccc(-c2cc3c(cc2Cc2cccnc2)OCO3)cc1 [Example 6c, 4-(Methylsulfonyl)-1-(6-(3-pyridylmethyl)(2H-benzo(3,4-d)1,3-dioxolan-5-yl))benzene]
COX-1
  COX-1 Inhibition (% at 100 μM): 30%
COX-2
  COX-2 Inhibition (% at 10 μM): 65%

## CS(=O)(=O)c1ccc(-c2cc3c(cc2CN2CCCCC2=O)OCO3)cc1 [Example 9c]
COX-1
  COX-1 Inhibition (% at 100 μM): 70%
COX-2
  COX-2 Inhibition (% at 10 μM): 90%

## CS(=O)(=O)c1ccc(-c2cc3c(cc2C=C2CCCC2)OCO3)cc1 [Example 10a, 4-(6-(Cyclopentylidenemethyl)(2H-benzo(3,4-d)1,3-dioxolan-5-yl))-1-(methylsulfonyl)benzene]
COX-1
  COX-1 Inhibition (% at 100 μM): 30%
COX-2
  COX-2 Inhibition (% at 10 μM): 100%

## CS(=O)(=O)c1ccc(-c2cc3c(cc2Cc2cc(F)cc(F)c2)OCO3)cc1 [Example 15c, 5-(1-(3′,5′-Difluorophenyl)methyl)-1,2-methylenedioxy-4-(4-methylsulfonylphenyl)benzene]
COX-1
  COX-1 Inhibition (% at 100 μM): 15%
COX-2
  COX-2 Inhibition (% at 10 μM): 90%
